# From US20020076693A1, “Novel cell surface receptor for HIV retroviruses, therapeutic and diagnostic uses” (priority 1997, published 2002)
# “Also recorded” adds a separate entry of the source.
# How the values were obtained:
# [1] = system: cell surface component (CEM and C8166 clones); assay: Competition for cell-surface binding of 8-MAP; parameters: species or system human; settings: FACS competition
# [2] = target: CD4 (Homo sapiens, UniProt P01730); assay: BIAcore biosensor binding to soluble CD4; settings: binding protein soluble recombinant CD4, BIAcore
# [3] = Stability of TASP constructs in serum (residual activity to bind the cell-surface ligand); type: in vitro ADME
# [4] = system: HIV-1 pseudotyped Mo-MLV virus; assay: Infection of CEM cells by HIV-1 pseudotyped Mo-MLV virus (p24); settings: p24 at 48 hours p.i., AZT 5 μM, TASP 5 μM
# Description: CEM cells (2×10^5) were infected with the HIV-1 pseudoryped Mo-MLV virus (Experimental procedure) at 95 ng of p24/ml, in the absence (histogram Control) or presence of different additions (as indicated). The infection was monitored by the production of p24, which was measured in the culture supernatant at 48 hours p.i. The mean±SD of duplicate samples is given. Treatment of cells with the different antibodies was as in FIG. 6 +L. For a control of infection, cells were pretreated with 5 μM AZT before infection.
# Hela cells were cotransfected by electroporation with plasmids pNL4-3 defective in env gene (Borman et al., 1995) and pE4070A expressing amphotrope envelope glycoproteins of Mo-MLV (Battini et al., 1996). Electroporation (Schwartz et al., 1996) was performed at 200 V, 960 μF, using a 4 mm wide cuvettes in a BIO-Rad Gene Pulser. The pseudotyped virus was recovered from the culture supernatant after 48 hours of culturing.
# [5] = target: P95/nucleolin (Homo sapiens, UniProt P19338); assay: Saturation of binding sites of P95/nucleolin
# P95/nucleolin, sequence (P19338 whole entry): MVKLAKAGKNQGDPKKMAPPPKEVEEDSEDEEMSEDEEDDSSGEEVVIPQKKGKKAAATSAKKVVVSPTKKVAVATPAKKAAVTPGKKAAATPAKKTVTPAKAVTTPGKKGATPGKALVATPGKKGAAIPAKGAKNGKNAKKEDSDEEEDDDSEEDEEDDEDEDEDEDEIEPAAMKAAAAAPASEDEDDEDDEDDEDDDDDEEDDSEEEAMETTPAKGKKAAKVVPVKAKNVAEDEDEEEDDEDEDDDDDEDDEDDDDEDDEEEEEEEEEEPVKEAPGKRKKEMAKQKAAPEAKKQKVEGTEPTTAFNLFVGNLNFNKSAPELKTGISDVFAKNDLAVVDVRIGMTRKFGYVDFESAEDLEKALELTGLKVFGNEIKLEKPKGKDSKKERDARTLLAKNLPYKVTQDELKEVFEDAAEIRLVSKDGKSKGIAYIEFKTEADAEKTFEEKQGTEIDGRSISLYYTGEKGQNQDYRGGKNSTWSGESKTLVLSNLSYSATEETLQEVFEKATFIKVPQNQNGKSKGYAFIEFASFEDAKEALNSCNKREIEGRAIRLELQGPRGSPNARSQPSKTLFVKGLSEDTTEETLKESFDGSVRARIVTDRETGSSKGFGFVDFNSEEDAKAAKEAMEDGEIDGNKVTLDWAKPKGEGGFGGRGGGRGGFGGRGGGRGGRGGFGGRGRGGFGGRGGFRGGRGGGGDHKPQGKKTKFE
# [6] = system: HIV-1 JRCSF; assay: HIV entry into HeLa P4-C5 cells (β-galactosidase), HIV-1 JRCSF; type: cell-based; settings: HeLa P4-C5, HIV-1 JRCSF; read-out: IC50, inhibition of HIV entry
# [7] = system: HIV-1 ELI, Ba-L, SF162, UGO29A, and Retrovir resistant isolate; assay: Infection of PBMC by different HIV-1 isolates (p24 in culture medium); type: cell-based; settings: p24 at 6 days post-infection, range over the isolates, read-out: IC50 values, virus production in PBMC
# Description: Virus production was monitored by the concentration of p24 in the culture medium at 6 days post-infection (3 +L0). The HIV-1 isolates were:
# Virus production was monitored by the concentration of p24 in the culture medium at 7 days post-infection.
# [8] = system: SIVmac; assay: SIVmac entry into HeLa cells (β-galactosidase); type: cell-based, SIV; settings: β-galactosidase at 48 hours
# [9] = target: P30/PHAPI (Homo sapiens, UniProt P39687); assay: Saturation of binding sites of P30/PHAPI
# P30/PHAPI, sequence (P39687 whole entry): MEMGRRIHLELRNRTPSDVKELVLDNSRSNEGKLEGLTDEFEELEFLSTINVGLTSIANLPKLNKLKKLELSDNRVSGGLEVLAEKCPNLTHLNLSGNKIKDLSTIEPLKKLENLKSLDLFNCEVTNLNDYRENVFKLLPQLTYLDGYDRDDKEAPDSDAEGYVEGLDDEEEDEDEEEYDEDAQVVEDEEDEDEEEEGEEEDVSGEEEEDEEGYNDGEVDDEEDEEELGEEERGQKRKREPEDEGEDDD
# [10] = system: HIV-1 Lai; assay: Inhibition of HIV-1 Lai infection of CEM cells (p24 production); type: cell-based
# Description: Infection of CEM cells with the HIV-1 Lai isolate was carried out as described previously (Callebaut et al., 1996). For the assay of the inhibitory effect of rabbit antisera or purified antibodies, CEM cells were first incubated (15-30 min, at room temperature) in the presence of different concentrations of each antibody preparation before infection using 0.2 synchronous dose of HIV-1 Lai as described before (Laurent-Crawford and Hovanessian, 1993). HIV production was estimated at different days post-infection (p.i.) by monitoring the HIV-1 major core protein p24 in the culture supernatant (Callebaut et al., 1996). The concentration of p24 was measured by p24 Core Profile ELISA (Du Pont). For a single cycle of HIV, AZT ([…]) was added at 8 hr post-infection to inhibit multiple cycles of virus infection; HIV production was monitored at 4 days post-infection (Laurent-Crawford and Hovanessian, 1993).
# [11] = system: VSV/HIV; type: cell-based
# [12] = system: HIV-1 Ada-M; assay: Infection of PBMC by HIV-1 Ada-M (p24); type: cell-based; settings: p24 at 6 days post-infection
# Description: Virus production was monitored by the concentration of p24 in the culture medium at 6 days post-infection (3 +L0).
# [13] = system: HIV-1 Bal; assay: HIV entry into HeLa P4-C5 cells (β-galactosidase), HIV-1 Ba-L; type: cell-based; settings: HeLa P4-C5, HIV-1 Bal; read-out: IC50, inhibition of HIV entry
# [14] = system: HIV-1 Ada-M; assay: HIV-1 Ada-M entry into HeLa P4-C5 cells (β-galactosidase); type: cell-based; settings: HeLa P4-C5, β-galactosidase at 48 hours
# Description: HeLa cells (P4-C5) were treated (incubation at 37° C., 30 min) with AZT (5 μM), (α-CD4 mAb CBT4 (5 μg/ml) before infection with the different HIV isolates in order to obtain the background β-galactosidase activity compared to untreated cells (Control). During the same time, the different HIV isolates were treated (incubation at room temperature, 15 min) with 1, 5, and 10 μg/ml of heparin before addition to untreated cells. The b-galactosidase activity was assayed at 48 hours post-infection as a measure of HIV entry (3 +L7).
# [15] = target: cell-surface P95 (Homo sapiens, UniProt P19338); assay: Recovery of cell-surface P95 complexed to biotin-labeled 5[Kψ(CH2N)PR]-TASP, competition by unlabeled constructs; settings: 50 μM unlabeled, 5 μM biotin-labeled 5[Kψ(CH2N)PR]-TASP
# cell-surface P95, sequence (P19338 whole entry): as the sequence (P19338 whole entry) above
# Description: Cells were then washed extensively before preparation of cell extracts. The complexes formed between the biotin-labeled TASP constructs and any cell-surface protein were then recovered by purification using avidin-agarose (“Materials and Methods”). […] Lane 1 “Extract” represents the ligand blot analysis of crude CEM cell extracts; material corresponding to 10^6 cells.
# Cells were then washed in FACS buffer (2×15 ml) and nucleus-free cell extracts were prepared using buffer E (150 ml). Such extracts were first diluted in PBS containing 1 mM EDTA (600 μl) before the addition of 100 μl avidin-agarose (ImmunoPure Immobilized Avidin from Pierce Chemical Company, U.S.A.) to capture the biotin-labeled TASP complexed to its cell surface ligand(s). These suspensions were incubated at 4° C. for 2 hr, and the avidin-agarose bound proteins were washed batchwise with PBS containing 1 mM EDTA (5×5 ml). Finally, the avidin-agarose pellet was resuspended in 100 ml of 2-fold concentrated electrophoresis sample buffer and heated at 95° C. for 5 min.
# [16] = system: MOLT4 cells; assay: FACS binding of FITC-labeled TASP after protease treatment of cells; parameters: species or system human
# Description: The cells were then washed twice with FACS buffer and fixed in 1% formaldehyde in FACS buffer. […] The fluorescence intensity was monitored by FACS analysis using Lysis II Software in FIGS. 3/4 and Tables 1/2, or Cell Quest™ Software (Beckton Dickinson and Apple Computer) in FIG. 5 +L.
# Protease treatment of CEM and MOLT cells was essentially as described previously (Borrow et al., 1992) with slight modifications. Briefly, cells were washed in PBS and in RPMI-1640 medium containing 1 mM EDTA before treatment with trypsin (Sigma; 2.5 mg/ml at 20° C. for 5 min), proteinase K (Bohringer Mannhein GmbH, Germany; 0.2 mg/ml at 37° C. for 30 min), or pronase E (Sigma, 0.1 mg/ml at 37° C. for 45 min). The reactions were stopped by 10 fold dilutions in RPMI-1640 containing 10% fetal calf serum. Cells were then washed in PBS and in FACS buffer, and processed for FACS analysis.
# The expression of CD4 and CD26 in control cells (not treated with different proteases) was considered as 100%. Consequently the % positive cells after protease treatment were estimated by comparison with the untreated cells.
substance,measurement,setting,value
5[Kψ(CH2N)PR]-TASP,concentration sufficient to block the binding of 10 μM of 8-MAP,[1],1 µM
same,ka (association rate constant),[2]; listed as 5(KΨ(CH2N)PR)TASP,nb^b
same,ka (association rate constant),[2]; listed as 5[KΨ(CH2N)PR]-TASP,No binding
same,activity retained after 18 hours of incubation in serum,[3],more than 80%
same,inactivated after 18 hours of incubation in sera,[3],less than 20%
same,effect on infection by HIV-1 pseudotyped Mo-MLV virus,[4],no significant effect
same,concentration for 100% saturation of the binding sites,[5],2 µM
same,IC50,[6],300 nM
same,IC50,[7],50 to 500 nM
same,effect on SIVmac entry,[8],only a slight effect; also recorded: no significant effect
same,concentration for 100% saturation of the binding sites,[9],8 µM
same,inhibition of virus production,[10]; 5 mM added one hour before or together with the virus,more than 90%
same,inhibitory effect when added at 8 hours p.i.,[10]; CEM cells,almost no effect
same,HIV entry monitored by intracellular concentration of p24,"[10]; CEM cells, 1 hour incubation with virus, 5-10 μM",inhibited almost completely
same,combined action with AZT against an HIV infection,"[10]; CEM cells, HIV-1 Lai, p24 at 4 days p.i.",synergistic action
same,IC50,"[10]; CEM cells, construct added 15 min before HIV-1, p24 at 4 days p.i., read-out: Inhibition of HIV infection (IC50), 50% dose",500 nM
same,inhibition of HIV-1 Lai infection in CEM cells,"[10]; TASP 5 μM, p24 at 5 days p.i.",more than 95%
same,inhibition of virus infection,"[10]; TASP 10 μM, mAb OKT4A 10 mg/ml",complete inhibition
same,higher activity compared to non-reduced counterpart 5[KPR]-TASP,[10]; both inhibition of HIV infection and affinity to bind the cell-surface ligand,≥ 10 fold
same,effect on VSV-HIV pseudotyped virus entry and replication,[11],had no effect
same,effect on HIV-1 Ada-M infection of PBMC,[12],no effect
same,IC50,[13],300 nM
same,effect on HIV-1 Ada-M entry,[14],enhances
same,isolation of cell-surface P95 abolished by excess unlabeled construct,[15],completely abolished
same,"Cell-surface expression (% positive cells), TASP-Ligand",[16]; after Pronase E treatment,8%
same,"Cell-surface expression (% positive cells), TASP-Ligand",[16]; after Proteinase K treatment,15%
same,"Cell-surface expression (% positive cells), TASP-Ligand",[16]; after Trypsin treatment,92%
